Source: US20240287108A1, “nSMASE2 INHIBITOR PRODRUGS WITH ENHANCED ORAL AND BRAIN EXPOSURES” (The Johns Hopkins University, priority 2021, published 2024)
“Also recorded” adds a separate entry of the source.

Tested on: IL-1β-induced release of GFP+ EVs into plasma
Test: EV release in vivo, IL-1β mouse model of acute brain injury
Conditions: P18 3 and 10 mg/kg DPTIP equivalent PO 30 min before intrastriatal IL-1β; 4 h
Excerpt: We have previously reported that nSMase2 regulates the secretion of extracellular vesicles from astrocytes in response to a focal inflammatory brain lesion. Rojas et al., 2018. Striatal injection of IL-1β in mice expressing GFAP-EGFP in astroglia evokes the release of GFP-labelled EVs that rapidly enter into plasma and target multiple organ systems. Dickens et al., 2017. We used this mouse model to evaluate the ability of P18 to inhibit EV release by the inhibition of nSMase2 activity in vivo. […] Interleukin-1β-injected mice, orally pre-dosed with P18 (30 min prior) were euthanized 4-hours post-IL-1β injection. GFP labeled (GFP+) EVs were quantified in plasma and nSMase2 activity was measured in the brain striata.
Striatal injections and EV measurements were performed as previously described by our group. Dickens et al., 2017; Mccluskey et al., 2008. […] Mice subjected to intrastriatal injection of IL-1β were also injected with the NSAID carprofen (rimadyl, 5 mg/kg. i.p.) and closely monitored during recovery; no adverse reactions were observed. […] Quantitation of Plasma EVs: Dynabeads M-450) Epoxy (Invitrogen) were coupled with anti-GFP antibody (Thermo Fisher) at a ratio of 200-μg antibody per 4×10^8 beads. […] The concentration of immunoprecipitated GFP+ EVs was quantified using ZetaView nanoparticle tracking analysis (Particle Metrix) and corresponding ZetaView software (8.05.14.SP7). […]

CCC1CC(N2CCCCC2)CC(CC)N1C(=O)Oc1c(OC)cc(-c2nc(-c3ccccc3)c(-c3cccs3)[nH]2)cc1OC (stereo not shown) [Compound P18, 2,6-Dimethoxy-4-(5-phenyl-4-(thiophen-2-yl)-1H-imidazol-2-yl)phenyl 2′,6′-diethyl-[1,4′-bipiperidine]-1′-carboxylate]
IL-1β-induced release of GFP+ EVs into plasma: significantly inhibited IL-1β-induced EV release into plasma; also recorded: inhibited the release of brain derived GFP+ EVs into blood at both 3 and 10 mg/kg; also recorded: significant inhibition
